Data taken from patent US4760201A (Exxon Research & Engineering Co., priority 1986, dated 1988).
Where “and” joins values, the source holds several entries; their conditions need not be identical. Equal values may be shown once. Read-outs that look alike come from different tables or passages of the source. Values belong to the compound of their own block, whether it stands above or below them.

Columns and labels:
[1] = Protocol: The liquids thus passed to the extraction unit were preheated each to a temperature of 60° C. The reciprocating plate column was provided with a hot water heating jacket maintained at 60° C. […] The liquids thereby accumulated were each analyzed by gas chromatography and nuclear magnetic resonance spectroscopy (NMR) for component identification.
[2] = Batch extraction of sec-butyl alcohol (SBA) from acid/alcohol feedstream by aliphatic acids; SBA in light phase; format: physicochemical; conditions: AS 56.7%, ES 0.5
From the text: Thereafter, the thus-formed acid/alcohol […] contacted with the selected amount of a carboxylic acid solvent of this invention, and the results thereby obtained are reported in the associated tables below.

[3] = Effect of solvent/feed ratio on selectivity of extraction (H2O/SBA in upper layer); conditions: 25° C., AS 56.7%, ES 0.5
[4] = Partitioning of alcohol into neodecanoic acid from sulfuric acid/alcohol feedstreams (Examples 14-21); conditions: AS 60%, 60° C.
[5] = Comparative runs: partitioning of SBOH and water into neodecanoic acid from aqueous sec-butanol free of sulfuric acid

Compound: CCC(C)O (stereo not drawn) [SBOH, sec-butyl alcohol]
Overall Partition Coeff. SBOH ([4]; Example 14, ES 0.2, NDA/SBOH 15.6): 0.3
Overall Partition Coeff. SBOH ([4]; Example 15, ES 0.2, NDA/SBOH 3.9): 0.35
Overall Partition Coeff. SBOH ([4]; Example 16, ES 0.2, NDA/SBOH 7.9): 0.33
Overall Partition Coeff. SBOH ([4]; Example 17, ES 0.2, NDA/SBOH 23.2): 0.31
Overall Partition Coeff. SBOH ([4]; Example 18, ES 0.2, NDA/SBOH 4.7): 1.35
Overall Partition Coeff. SBOH ([4]; Example 19, ES 1.0, NDA/SBOH 1.3): 0.25
Overall Partition Coeff. SBOH ([4]; Example 20, ES 1.0, NDA/SBOH 2.6): 0.24
Overall Partition Coeff. SBOH ([4]; Example 21, ES 1.0, NDA/SBOH 7.9): 0.34
Overall Partition Coeff. SBOH ([5]; Comparative Example I, 25° C., start SBOH 47.8 wt %): 4.1
Overall Partition Coeff. SBOH ([5]; Comparative Example II, 25° C., start SBOH 7.3 wt %): 2.2
Overall Partition Coeff. SBOH ([5]; Comparative Example III, 25° C., start SBOH 63.9 wt %): 4.0
Overall Partition Coeff. SBOH ([5]; Comparative Example IV, 25° C., start SBOH 13.9 wt %): 2.2
Overall Partition Coeff. SBOH ([5]; Comparative Example IX, 60° C., start SBOH 28.3 wt %): 6.0
Overall Partition Coeff. SBOH ([5]; Comparative Example V, 60° C., start SBOH 45.3 wt %): 6.0
Overall Partition Coeff. SBOH ([5]; Comparative Example VI, 60° C., start SBOH 7.4 wt %): 4.4
Overall Partition Coeff. SBOH ([5]; Comparative Example VII, 60° C., start SBOH 61.7 wt %): 6.4
Overall Partition Coeff. SBOH ([5]; Comparative Example VIII, 60° C., start SBOH 13.5 wt %): 4.5
Overall Partition Coefficients, Wt. Fract. (concentration in light phase / in heavy phase) ([1]; Table 1, residence time 3.52 hours, solvent-to-feed 2.04:1, E.S. 1, A.S. 55%, 60° C.): 1.26
Overall Partition Coefficients, Wt. Fract. (concentration in light phase / in heavy phase) ([1]; Table 2, residence time 3.62, solvent-to-feed 2.098:1, E.S. 1, A.S. 55%, 60° C.): 0.83
Overall Partition Coefficients, Wt. Fract. (concentration in light phase / in heavy phase) ([1]; Table 3, residence time 3.66 hours, solvent-to-feed 2.043:1, E.S. 1, A.S. 55%, 60° C.): 1.15
Overall Partition Coefficients, Wt. Fract. (concentration in light phase / in heavy phase) ([1]; Table 4, residence time 3.66 hrs, solvent-to-feed 2.11:1, solvent feed temp. 30° C., E.S. 1, A.S. 55%, 60° C.): 4.51
Overall Partition Coefficients, Wt. Fract. (concentration in light phase / in heavy phase) ([1]; Table 5, residence time 3.37 hrs, solvent-to-feed 1.23:1, E.S. 1, A.S. 55%, 60° C.): .627
Overall Partition Coefficients, Wt. Fract. (concentration in light phase / in heavy phase) ([1]; Table 6, residence time 3.60 hrs, solvent-to-feed 2.06:1, E.S. 1, A.S. 60%, 60° C.): 0.340
Overall Partition Coefficients, Wt. Fract. (concentration in light phase / in heavy phase) ([1]; Table 7, residence time 3.77 hrs, solvent-to-feed 1.38:1, E.S. 1, A.S. 60 wt. %, 60° C.): 0.267

Compound: O [Water, water]
Overall Partition Coefficients, Wt. Fract. (concentration in light phase / in heavy phase) [1]: 0.012

Compound: CCC(C)OC(C)CC (stereo not drawn) [SBE, secondary butyl ether]
Overall Partition Coefficients, Wt. Fract. (concentration in light phase / in heavy phase) [1]: 81.2

The next lines start with results.

Overall Partition Coefficients, Wt. Fract. (concentration in light phase / in heavy phase) [1]: > 2000
Compound: butene

SBA in Light Phase ([2]; Table 9, 25 °C, vol:vol 1.0:1): 5.04 wt. %
SBA in Light Phase ([2]; Table 9, 60 °C, vol:vol 1.0:1): 7.82 wt. %
selectivity of extraction [3]: high selectivity for alcohol extraction
wt:wt. ratio H2O/SBA In Upper Layer ([3]; solvent/feed 0.4 (v/v)): 0.099 wt:wt
wt:wt. ratio H2O/SBA In Upper Layer ([3]; solvent/feed 1.0 (v/v)): 0.054 wt:wt
wt:wt. ratio H2O/SBA In Upper Layer ([3]; solvent/feed 1.5 (v/v)): 0.045 wt:wt
wt:wt. ratio H2O/SBA In Upper Layer ([3]; solvent/feed 2.0 (v/v)): 0.067 wt:wt
Compound: CC(C)(C)CCC(=O)O [neoheptanoic acid]

SBA in Light Phase ([2]; Run 8-1, 60 °C, v:v solvent:feed 1.0): 9.91 wt. %
SBA in Light Phase ([2]; Run 8-2, 60 °C, v:v solvent:feed 2.0): 7.20 wt. %
SBA in Light Phase ([2]; Run 8-3, 25 °C, v:v solvent:feed 0.2): 7.38 wt. %
SBA in Light Phase ([2]; Run 8-4, 25 °C, v:v solvent:feed 0.4): 7.57 wt. %
SBA in Light Phase ([2]; Run 8-5, 25 °C, v:v solvent:feed 1.0): 6.15 wt. %
SBA in Light Phase ([2]; Run 8-6, 25 °C, v:v solvent:feed 1.5): 5.37 wt. %
SBA in Light Phase ([2]; Run 8-7, 25 °C, v:v solvent:feed 2.0): 4.54 wt. %
SBA in Light Phase ([2]; Table 9, 25 °C, vol:vol 1.0:1): 6.15 wt. %
SBA in Light Phase ([2]; Table 9, 60 °C, vol:vol 1.0:1): 9.91 wt. %
wt:wt. ratio H2O/SBA In Upper Layer ([3]; solvent/feed 0.2 (v/v)): 0.066 wt:wt and 0.079 wt:wt
wt:wt. ratio H2O/SBA In Upper Layer ([3]; solvent/feed 0.4 (v/v)): 0.055 wt:wt
wt:wt. ratio H2O/SBA In Upper Layer ([3]; solvent/feed 1.0 (v/v)): 0.067 wt:wt
wt:wt. ratio H2O/SBA In Upper Layer ([3]; solvent/feed 2.0 (v/v)): 0.101 wt:wt
Compound: CCCCCCCC(=O)O [octanoic acid]
selectivity of extraction [3]: increasing amounts of water being removed
